Test results as given in patent publication US12521439B2, “Methods and materials for modulating Nrf2 pathway” (The General Hospital Corporation, priority 2019, dated 2026).

Legend:
[1] = Pharmacokinetics after single i.p. administration; format: in vivo, male Swiss Albino mice
Protocol: Pharmacokinetics studies: These studies were performed by SAI Lifesciences using Male Swiss Albino mice. OBT was resuspended in a solution formulation of 10% DMA, 10% EtOH, 10% PEG400 in 70% of (2-hydroxypropyl)-[…] (HPβCD). OBT was administered by intraperitoneal (i.p.) injection at 7.5 mg/kg. Blood samples were collected from mice, at 0, 0.08, 0.25, 0.5, 1, 2, 4, 8 and 24 hr. Immediately after blood collection, plasma was harvested by centrifugation and stored until analysis. After collection of blood, brain samples were collected from each mouse at 0.5, 4 and 24 h. Tissue samples were homogenized using ice-cold phosphate buffer saline (pH7.4) and homogenates were stored until analysis. Total homogenate volume was three times the tissue weight. Plasma samples were quantified by LC-MS/MS method (LLOQ=1.00 ng/mL) for plasma and brain.

HO1, NQO1, TXNRD2 mRNA = assay: qRT-PCR of Nrf2 target genes in cancer cells; format: cell-based, human
Protocol: Real-time qRT-PCR: Total RNA isolation from cultured cells was performed using RNeasy kit (Qiagen), followed by reverse transcription with OneScript cDNA synthesis Kit (ABM). mRNA expression of different genes was then analyzed by quantitative PCR using PowerUp SYBR Green Master Mix (Applied Biosystems) and performed using a QuantStudio3 real-time PCR system (Applied Biosystems). Primer sequences for HO1, NQO1, TXNRD2 were obtained from the MGH primer bank and were as follows: HO1 Forward, 5′-[…]-3′ and reverse 5′-[…]-3′; NQO1 Forward 5′-[…]-3′ and reverse 5′-[…]-3′ and Txnrd2 forward 5′-[…]-3 and reverse 5′-[…]. Oligonucleotides were synthesized by the CCIB DNA Core Facility at Massachusetts General Hospital. Expression of human GAPDH was used to mRNA normalization and relative mRNA expression was calculated using the comparative Ct method.

[2] = tested on: patient-derived GBM8 GSC tumors; assay: FDG-PET imaging of orthotopic GSC brain tumors; format: in vivo, mice; settings: 3 doses of 10 mg/kg within 24 h, imaged 4 h after last dose; tumor to muscle ratio
Description: In vivo Tumor Models: Animal experiments performed by our laboratory were approved by the Massachusetts General Hospital Subcommittee on Research Animal Care. Female athymic nude mice (6-8 weeks) were used in all studies with the exception of pharmacokinetics analysis. For brain tumors xenograft model, GBM8 cells (1×10^5 cells/mouse) stably expressing Fluc were stereotactically implanted into the left striatum of animals. Following implantation, animals were regularly imaged for Fluc to monitor brain tumor growth. To generate the breast cancer model, MDA-MB-231 cells (2.5×10^5 cells/mouse) expressing Fluc were mixed with Matrigel 1:1 (v/v) (BD Matrigel) and injected into the mammary fat pad of mice. Tris-OBT was dissolved in PBS and administered intraperitoneally. Tumor volumes were measured using a caliper and calculated according to the following formula: volume=(width)^2×length/2. […]
FDG-PET imaging: Mouse PET/CT scans (n=6, 3 per group) were performed sequentially using a custom-designed mouse bed and PET/CT gantry adapter. […] The same ROIs are then copied to the matching PET images for quantification of the ^18F-FDG PET signal as the standard uptake values (SUVs). […]

Keap1 = Keap1 (Homo sapiens, UniProt Q14145); assay: Keap1 immunoblotting / immunoprecipitation; format: cell-based; design: Keap1 protein levels in U87 cells treated with the indicated doses of OBT for 8 hours; endogenous in cells; host or cells: U87, MDA-MB-231 (endogenous); 293T and MDA-MB-231 also transfected with HA-Keap1
Protocol: Immunoblotting and Immunoprecipitation analysis: Antibodies against PDI, GAPDH, HA-tag, Ubiquitin, Keap1 and beta-actin (Cell Signaling) as well as secondary Horseradish peroxidase (HRP) conjugated antibodies: sheep anti-mouse IgG-HRP and donkey antirabbit IgG-HRP (Amersham Pharmacia Biotech) were used in this study. For protein expression analysis, cells were lysed in RIPA buffer (150 mM NaCl, 50 mM TRIS, pH 8.0, 1% NP-40, 0.5% deoxycholate, 0.1% SDS) supplemented with 1× protease inhibitors cocktail (Roche). Proteins were quantified using a Bradford protein determination assay (Bio-Rad) followed by electrophoresis in 10% NuPAGE Bis-Tris gels (Life Technologies) and transfer to nitrocellulose membranes (Bio-Rad). Membranes were incubated overnight with antibodies in 1-5% non-fat milk powder in PBS/0.5% TWEEN. Proteins were detected with SuperSignal West Pico Chemiluminescent Substrate (Pierce). For immunoprecipitation assays, cells were lysed in RIPA buffer supplemented with protease inhibitors and 2 mM N-ethylmaleimide. Cell lysates were pre-cleared with protein A agarose beads (Cell Signaling) and incubated with anti-HA antibody with gentle rocking overnight at 4° C. followed by incubation with protein A agarose beads and subsequent washing and elution steps. Electrophoresis, transfer and immunoblot analysis was performed as described above.

Sequence of Keap1 (Q14145 whole entry): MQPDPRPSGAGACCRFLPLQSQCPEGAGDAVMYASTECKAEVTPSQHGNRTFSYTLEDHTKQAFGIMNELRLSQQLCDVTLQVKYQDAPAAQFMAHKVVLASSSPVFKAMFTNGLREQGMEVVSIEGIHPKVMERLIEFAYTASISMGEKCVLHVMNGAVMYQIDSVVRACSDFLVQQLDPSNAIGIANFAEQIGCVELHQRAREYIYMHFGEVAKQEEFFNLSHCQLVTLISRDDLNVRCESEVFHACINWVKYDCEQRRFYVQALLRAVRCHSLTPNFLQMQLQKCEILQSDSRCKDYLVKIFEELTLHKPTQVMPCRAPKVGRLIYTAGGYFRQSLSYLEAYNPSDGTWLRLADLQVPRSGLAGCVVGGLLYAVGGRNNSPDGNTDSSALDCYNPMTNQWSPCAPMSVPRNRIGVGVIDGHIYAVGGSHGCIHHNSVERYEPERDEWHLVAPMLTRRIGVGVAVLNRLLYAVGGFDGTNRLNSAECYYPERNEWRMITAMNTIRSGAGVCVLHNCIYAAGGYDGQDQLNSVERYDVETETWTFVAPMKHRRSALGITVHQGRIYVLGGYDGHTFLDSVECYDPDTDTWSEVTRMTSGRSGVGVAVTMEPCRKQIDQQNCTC

Vss relative to normal volume of total body water (0.7 L/kg) ([1]; 7.5 mg/kg i.p.): 3 fold | systemic plasma clearance ([1]; 7.5 mg/kg i.p.): high | time up to which plasma concentrations were detected ([1]; 7.5 mg/kg i.p., LC-MS/MS): up to 24 hrs | blood-brain barrier penetration ([1]; intact BBB): efficiently penetrates | Kp at 0.5 h ([1]; male, Swiss Albino, mouse, brain, ip, 7.5 mg/kg, 0.5 hr after single i.p. dose, read-out: brain-to-plasma ratio): 0.27 | Kp at 4 h ([1]; male, Swiss Albino, mouse, brain, ip, 7.5 mg/kg, 4 hrs after single i.p. dose, read-out: brain-to-plasma ratio): 0.5 | Tmax ([1]; male, Swiss Albino, mouse, ip, plasma, 7.5 mg/kg i.p.): 30 min | half-life ([1]; male, Swiss Albino, mouse, plasma, ip, 7.5 mg/kg i.p., read-out: terminal plasma half-life): 24 min | ubiquitination of Keap1 (Keap1; 293T, OBT 2 μM, 6 hours, IP anti-HA): resulted in ubiquitination of Keap1 | OBT-mediated degradation of Keap1 with CUL3 downregulation or proteasome inhibitor (Keap1; MDA-MB-231, OBT 3 μM, 6 hours): prevented | time at which Keap1 restored to physiological levels (Keap1; U87): 24 h | earliest time of Keap1 decrease (Keap1; U87, following treatment with OBT): 4 h | Keap1 protein levels (Keap1; U87, 1 μM time course, indicated doses 8 hours): time- and dose-dependent decrease
SMILES: COC1=CC(=O)C(O)=C/C1=C/C=C/c1ccccc1 [OBT, (Z)-2-hydroxy-5-methoxy-4-((E)-3-phenylallylidene)cyclohexa-2,5-dien-1-one]
NQO1 and TXNRD2 mRNA (HO1, NQO1, TXNRD2 mRNA; U87 and MDA-MB-231 cells): upregulated | HO1 mRNA expression (HO1, NQO1, TXNRD2 mRNA; different cancer cells, 8 hours, normalized to GAPDH): strong increase | decrease in FDG tumor uptake [2]: ~50%
